Read-outs that look alike come from different tables or passages of the source.
How the values were obtained:
[1] = test system: L. amazonensis promastigotes; experiment: Susceptibility assay in promastigotes, L. amazonensis; type: cell-based; conditions: 72 h, read-out: IC50 ± SD
From the text: (§1) The strains used in this research were MHOM/BR/77/LTB0016 of L. amazonensis from the Pedro Kouri Institute of Tropical Medicine Cuba strains collection, MHOM/FR/78/LEM75 of L. infantum from the Department of Parasitology, Faculty of Pharmacy of the Complutense University of Madrid Spain, and MNYC/BZ/62/M379 of L. mexicana from the Laboratory of Molecular Immunobiochemistry and Heart Diseases UNAM-INC Mexico Research Unit. The parasites were obtained from the skin lesions of previously infected BALB/c mice and maintained at 26 °C in Schneider medium (SIGMA, St. Louis, MO, USA) and supplemented with antibiotics (penicillin sodium 200 IU/mL and streptomycin 200 μg/mL SIGMA, St. Louis, MO, USA) and 10% fetal bovine serum (FBS, SIGMA, St. Louis, MO, USA), and inactivated with heat (56 °C, 30 min). The promastigotes, once isolated, were kept in the exponential multiplication phase by successive subcultures every 3 or 4 days until the time of use.
(§2) Susceptibility assay in promastigotes: Promastigotes culture in the exponential growth phase were seeded in 96-well plates (10^6 parasites/mL) at a final volume of 200 μL/well. Compounds were tested in serial 1/2.5 dilutions (130–0.2 μM). The treated cultures were incubated for 72 h at 26 °C.
(§3) Every concentration of the test compounds was assessed in quadruplicate.
(§4) Cell viability was assessed using the resazurin transformation method. After the incubation period, 20 μL of 3 mM resazurin solution prepared in sterile PBS was added to each well. Reading was performed at 540 nm excitation and 590 nm emission wavelengths after 8 h of incubation in a 96-well plate reader (SUMA®, Habana, Cuba). The mean fluorescence intensity was calculated for each concentration. From the mean values of fluorescence and the corresponding product concentrations, a non-linear fit to the Emax sigmoid model was performed, and the mean inhibitory concentrations (IC50), mean effective concentrations (EC50), and the mean cytotoxic concentration (CC50) were estimated. The selectivity index was calculated as SIp = CC50/IC50 and SIa = CC50/EC50 for the promastigote and amastigote stages, respectively.

[2] = test system: L. mexicana intracellular amastigotes; experiment: Intracellular amastigote assay, L. mexicana; type: cell-based; conditions: Leishmania mexicana, read-out: EC50 ± SD, intracellular amastigotes, L. mexicana
From the text: as §1
(§5) Intracellular amastigote assay: Macrophages were seeded in 96-well plates at an initial density of 10^5 cells/mL in a final volume of 200 µL per well. After 2 h of incubation at 33 °C and 5% CO2, the cell monolayer was infected with a culture of promastigotes in the stationary phase of growth at a ratio of 10:1 (promastigotes: macrophages) and incubated under the same conditions for 4 h. The compounds were tested in serial dilutions of 1/2.5 (15–0.02 μM). The treated cultures were then incubated for 48 h under similar conditions. After incubation, the RPMI medium was removed and replaced with Schneider’s medium. Cultures were incubated for 72 h at 26 °C to allow the surviving amastigotes to transform into promastigotes and replicate.
as §3, §4

[3] = test system: L. mexicana promastigotes; experiment: Susceptibility assay in promastigotes, L. mexicana; type: cell-based; conditions: 72 h
From the text: as §1, §2, §3, §4

[4] = test system: L. infantum intracellular amastigotes; experiment: Intracellular amastigote assay, L. infantum; type: cell-based; conditions: read-out: EC50 ± SD
From the text: as §1, §5, §3, §4

[5] = test system: L. infantum promastigotes; experiment: Susceptibility assay in promastigotes, L. infantum; type: cell-based; conditions: 72 h, read-out: IC50 ± SD
From the text: as §1, §2, §3, §4

[6] = test system: L. amazonensis intracellular amastigotes; experiment: Intracellular amastigote assay, L. amazonensis; type: cell-based; conditions: read-out: EC50 ± SD
From the text: as §1, §5, §3, §4

[7] = Cytotoxicity in mouse peritoneal macrophages (resazurin); type: cell-based; conditions: concentration that causes lysis of 50% of BALB/c mouse peritoneal macrophages
Experimental: To obtain peritoneal macrophages, the mice were sacrificed by cervical dislocation, and the resident cells in the peritoneum were extracted by washing with RPMI (Roswell Park Memorial Institute, Buffalo, NY, USA) medium and cold (4 °C) supplemented with 10% FBS and antibiotics (sodium penicillin 200 IU/mL and streptomycin 200 μg/mL). Cell concentration was calculated using Neubauer chamber counts in an optical microscope (Motic, Xiamen, China) with a 40× objective and 10× eyepieces (400× magnification).
Cytotoxicity in mouse peritoneal macrophages: Peritoneal macrophages were adjusted to 10^5 macrophages/mL, and 200 μL was seeded per well in a 96-well plate and incubated at 33 °C and 5% CO2 for 2 h. Subsequently, the non-attached cells were discarded, and the monolayer was washed with PBS. The compounds were tested in serial dilutions of 1/2.5 (650–1.0 μM). The treated cultures were incubated for 48 h at 33 °C in a humidified atmosphere containing 5% CO2.
as §3, §4

[8] = test system: promastigotes of L. amazonensis; experiment: Scanning and transmission electron microscopy of treated promastigotes; type: cell-based; conditions: for Structural damage, scanning electron microscopy: L. amazonensis promastigotes treated at IC50, ½ IC50, ¼ IC50; for Ultrastructural damage, transmission electron microscopy: L. amazonensis promastigotes, 72 h of incubation at IC50, ½ IC50, ¼ IC50
From the text: The concentrations of compounds selected for the study of structural and ultrastructural damage were those corresponding to IC50, ½ IC50, and ¼ IC50 for compound NV8 (reported in this study) and the previously reported compound VATR 131 [21]. The procedure for the treatment of cultures was the same as that described above for the in vitro tests on promastigotes of L. amazonensis. Two negative controls were used: a DMSO-treated culture (0.1%) and an untreated culture.
At the end of the exposure to the compounds, the parasites were washed once with PBS and immediately fixed with 2.5% glutaraldehyde in PBS for 1 h at room temperature. After a thorough wash with PBS, the parasites were fixed with 1% OsO4 in PBS at 4 °C for 1 h and then washed with PBS. The parasites were dehydrated in increasing concentrations of ethanol. Drying was carried out at the critical point of CO2 in a Samdry 780 apparatus (USA). Next, they were evaporated with gold in a Denton Vacuum Desk (USA). Finally, the samples were observed and micrographed using a JSM 6510LB-JEOL microscope at 30 keV.
Promastigotes were washed with PBS and fixed with 2.5% glutaraldehyde solution for 1 h at 4 °C. They were then fixed with a solution of 1% OsO4 in the same buffer at 4 °C and in darkness for 1 h. Promastigotes were washed with PBS at RT and dehydrated in an ethanolic solution in increasing order by up to 100%. They were then included in the epoxy resin using specific molds for polymerization and maintained at 60 °C for a minimum period of 72 h. The blocks were cut with an ultramicrotome (Reichert Jung, Austria) into thin sections. The slices were stained with uranyl acetate and lead citrate and subsequently micrographed using a JEM 1400 transmission electron microscope (JEOL, Ltd., Tokyo, Japan).

Leishmania spp. [9] = experiment: Antileishmanial activity, species not separated (pooled statement or literature); type: cell-based; conditions: all Leishmania species; active = IC50 ≤ 1 μM and SI ≥ 10
[10] = test system: L. amazonensis promastigotes; design: method as in PMID 37915499; conditions: promastigotes of L. amazonensis; previously reported compound; cited from earlier work
Leishmania spp. [11] = conditions: promastigote stage, drug used in the clinic; cited from earlier work
[12] = test system: amastigotes of L. amazonensis; conditions: cited from earlier work
[13] = Leishmania mexicana, read-out: IC50 ± SD, promastigotes, L. mexicana, 72 h
[14] = Leishmania infantum, intracellular amastigotes, L. infantum
[15] = intracellular amastigotes, L. infantum
[16] = Leishmania infantum, promastigotes, L. infantum
[17] = Leishmania amazonensis, intracellular amastigotes, L. amazonensis
[18] = BALB/c, mouse, peritoneal macrophages
[19] = Leishmania amazonensis, promastigotes, L. amazonensis

Structure (SMILES) | EC50 [2] [µM] | IC50 [3, 13] [µM] | EC50 [4, 14] [µM] | IC50 [5, 16] [µM] | CC50 at 48 h [7, 18] [µM] | IC50 [1, 19] [µM] | also measured
C[C@@H]1[C@H](O)[C@@H](C)/C=C/C=C/C=C/C=C/C=C/C=C/C=C/[C@H](O[C@@H]2O[C@H](C)[C@@H](O)[C@H](N)[C@@H]2O)C[C@@H]2O[C@](O)(C[C@@H](O)C[C@@H](O)[C@H](O)CC[C@@H](O)C[C@@H](O)CC(=O)O[C@H]1C)C[C@H](O)[C@H]2C(=O)O [AmB, Amphotericin B, reference compound] | 0.036 ± 0.008 | 0.046 ± 0.012 |  |  |  |  | IC50 ([1]; Leishmania amazonensis): 0.03 ± 0.01 µM; EC50 ([4]; Leishmania infantum): 0.6 ± 0.21 µM; IC50 ([5]; Leishmania infantum): 0.28 ± 0.01 µM; EC50 ([6]; Leishmania amazonensis): 0.034 ± 0.006 µM; CC50 at 48 h [7]: 5.8 ± 0.5 µM
CN(C)CCOc1nn(Cc2ccccc2)c2ccc([N+](=O)[O-])cc12 [NV4] |  | 2.3 ± 0.4 | ≤ 5 | ≤ 1 | 67.1 ± 8.9 |  | EC50 [4, 15]: 3.42 ± 1.8 µM; IC50 ([5]; promastigotes, L. infantum): 0.52 ± 0.05 µM; EC50 [6, 17]: 12.3 ± 0.7 µM
CN(C)CCCOc1nn(Cc2ccccc2)c2ccc([N+](=O)[O-])cc12 [NV6] |  |  | ≤ 5 | ≤ 1 | 61 ± 6.9 |  | EC50 [4, 15]: 3.79 ± 1.46 µM; IC50 ([5]; promastigotes, L. infantum): 0.69 ± 0.063 µM
O=[N+]([O-])c1ccc2c(c1)c(OCCN1CCCCC1)nn2Cc1ccccc1 [NV7] | 3.1 ± 1.05 |  | 12.8 ± 0.13 |  | 24.4 ± 6.7 |  | EC50 [6, 17]: 5.61 ± 0.69 µM
O=[N+]([O-])c1ccc2c(c1)c(OCCCN1CCCCC1)nn2Cc1ccccc1 [NV8] |  |  |  |  | 23.2 ± 5 |  | Structural damage, scanning electron microscopy [8]: the bodies were completely swollen and spheroidal in appearance; Ultrastructural damage, transmission electron microscopy [8]: most of the parasites are atypical; many are swollen or deformed and present large cytosolic vacuoles
NCCCOc1nn(Cc2ccccc2)c2ccc([N+](=O)[O-])cc12 [NV9] |  | 2.8 ± 3 | 9.71 ± 0.4 | ≤ 1 | 47.9 ± 10.4 | ≤ 1 | IC50 ([1]; promastigotes, L. amazonensis): 0.81 ± 0.17 µM; IC50 ([5]; promastigotes, L. infantum): 0.59 ± 0.16 µM
NCCOc1nn(Cc2ccccc2)c2ccc([N+](=O)[O-])cc12 [NV10] |  | 4.5 ± 0.5 |  | ≤ 1 | 46.7 ± 7.7 | ≤ 1 | IC50 ([1]; promastigotes, L. amazonensis): 0.99 ± 0.14 µM; IC50 ([5]; promastigotes, L. infantum): 0.93 ± 0.27 µM; EC50 [6, 17]: ≤ 5 µM; EC50 ([6]; intracellular amastigotes, L. amazonensis): 4.35 ± 0.9 µM
O=[N+]([O-])c1ccc2c(c1)c(OCCBr)nn2Cc1ccccc1 [NV11] |  | 9.38 ± 0.13 |  | 20.4 ± 1.3 |  | 20.7 ± 1.38 | Classification against promastigotes (Leishmania spp. [9]): inactive
O=[N+]([O-])c1ccc2c(c1)c(OCCCCCBr)nn2Cc1ccccc1 [NV12] |  | 2.8 ± 1.1 |  | 32.96 ± 0.25 |  | 2.88 ± 1.47 | Classification against promastigotes (Leishmania spp. [9]): inactive
CNCCOc1nn(Cc2ccccc2)c2ccc([N+](=O)[O-])cc12 [NV13] | 11.6 ± 0.7 |  | 16.2 ± 0.54 |  | 61.4 ± 9.4 | ≤ 1 | IC50 ([1]; promastigotes, L. amazonensis): 0.82 ± 0.27 µM; EC50 [6, 17]: 5.66 ± 0.53 µM
CN(C)CCCCCOc1nn(Cc2ccccc2)c2ccc([N+](=O)[O-])cc12 [NV14] | 8.2 ± 0.2 |  |  | 0.93 ± 0.18 | 2.5 ± 0.7 | 0.5 ± 0.22 | 
CNCCCCCOc1nn(Cc2ccccc2)c2ccc([N+](=O)[O-])cc12 [NV15] | 1.53 ± 0.13 |  |  | 1.27 ± 0.06 | 5.6 ± 2.5 | 1.88 ± 1.34 | 
O=[N+]([O-])c1ccc2c(c1)c(OCCCCCN1CCCCC1)nn2Cc1ccccc1 [NV16] | 4.29 ± 0.48 | ≤ 1 |  | 1.41 ± 0.03 | 21.1 ± 7.1 |  | IC50 ([3]; read-out: IC50 ± SD, promastigotes, L. mexicana): 0.5 ± 0.1 µM
NCCCCCOc1nn(Cc2ccccc2)c2ccc([N+](=O)[O-])cc12 [NV17] |  | 2.9 ± 0.1 | 11.8 ± 1.04 |  | 7.74 ± 3 | 1.01 ± 0.39 | 
CC(=O)OCCn1c2ccc([N+](=O)[O-])cc2c(=O)n1Cc1ccccc1 [VATR 131] |  |  |  |  |  |  | IC50 [10]: 2.13 µM; Structural damage, scanning electron microscopy [8]: an alteration in the morphology of the parasites was observed from the lowest concentration of the compound; Ultrastructural damage, transmission electron microscopy [8]: very similar to those observed for NV8 at concentrations equivalent to ¼ IC50 and ½ IC50
CCCCCCCCCCCCCCCCOP(=O)([O-])OCC[N+](C)(C)C [miltefosine] |  |  |  |  |  |  | IC50 (Leishmania spp. [11]): 50.7 µM
N=C(N)c1ccc(OCCCCCOc2ccc(C(=N)N)cc2)cc1 [pentamidine] |  |  |  |  |  |  | IC50 (Leishmania spp. [11]): 30 µM
c1ccc2ncccc2c1 [quinoline] |  |  |  |  |  |  | EC50 [12]: 0.54 µM
C[C@@H](c1nc(-c2ccc(C#N)cc2)cs1)[C@](O)(Cn1cncn1)c1ccc(F)cc1F [ravuconazole] |  |  |  |  |  |  | EC50 [12]: 5.11 µM
